Measurements taken from PubChem BioAssay AID977605 (Broad Institute, 2014).
Calls of active or inactive are those of the source.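 The calls were made as follows: active = fitted curve reaches 40% activation below the top valid tested dose, in every test run; inconclusive = test runs disagree on the call; inactive = the rest, including effects opposite to the expected direction.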

Experiment: E-selectin inducers in HUVECs, dose response, imaging, HUVEC, cherry-picked samples (AID 977605);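 also: signal is the share of imaged cells scored positive for E-selectin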
Details: HUVEC E-selectin immunostaining
[1] = at 19.5 µM (top of the series), percent of TNF-alpha response over vehicle
[2] = at 21 µM (top of the series), percent of TNF-alpha response over vehicle

SMILES	activation [1]	also measured
C[C@@H]1CN([C@H](C)CO)C(=O)c2cccc(NS(C)(=O)=O)c2O[C@@H]1CN(C)C(=O)Nc1cccc2ccccc12	-0.133% (inactive)	
C[C@H]1CN([C@@H](C)CO)C(=O)c2cc(NC(=O)CCC(F)(F)F)ccc2O[C@@H]1CN(C)Cc1ccc(C(F)(F)F)cc1	0.111% (inactive)	
C[C@H]1CN([C@@H](C)CO)C(=O)c2cc(NC(=O)Cn3cnnn3)ccc2O[C@H]1CN(C)S(=O)(=O)c1ccccc1	-0.003% (inactive)	
CCN(CC)CCN(C(=O)Cn1nnc(-c2ccc(C)o2)n1)C(C(=O)NC(C)(C)C)c1cccs1 (configuration not stated)	-0.044% (inactive)	
Cc1ccc(-n2ncc3c(=O)[nH]c(SC(C)C)nc32)cc1	0.023% (inactive)	
Cc1ccc(CSc2nc3[nH]ncc3c(=O)[nH]2)cc1	24.6% (inactive)	
CCNS(=O)(=O)c1ccc(CCC(=O)N2CCN(c3ccc(OC)cc3)CC2)cc1	-0.027% (inactive)	
COc1ccc(C#Cc2ccc3c(c2)O[C@@H](CN(C)C(=O)Nc2cccc(OC)c2)[C@H](C)CN([C@@H](C)CO)S3(=O)=O)cc1	4.46% (inactive)	
Cc1ccc(COc2ccc(/C=N/O)cc2)cc1	-0.083% (inactive)	
COc1ccc(CN(C)C[C@H]2Oc3ccc(NC(=O)Cn4cnnn4)cc3CC(=O)N([C@@H](C)CO)C[C@@H]2C)cc1	-0.061% (inactive)	
C[C@H](CO)N1C[C@H](C)[C@H](CN(C)Cc2ccc(C(F)(F)F)cc2)Oc2ccc(NC(=O)Cc3cn(C)c4ccccc34)cc2CC1=O	0.156% (inactive)	
C[C@@H]1CN([C@H](C)CO)C(=O)c2cccc(NC(=O)CCCCCC(=O)Nc3ccccc3N)c2O[C@H]1CN(C)Cc1ccc2c(c1)OCO2		activation (at 18 µM (top of the series), percent of TNF-alpha response over vehicle): 0.253% (inactive)
Cn1c(CNS(=O)(=O)c2ccc(Cl)cc2)cc(=O)n(C)c1=O	-0.279% (inactive)	
COc1ccc(S(=O)(=O)Nc2ccc3c(c2)C(=O)N([C@@H](C)CO)C[C@H](C)[C@@H](CN(C)Cc2ccc(Cl)c(Cl)c2)O3)cc1	-0.097% (inactive)	
COc1ccc(S(=O)(=O)Nc2cccc3c2O[C@H](CN(C)C(=O)Nc2c(C)noc2C)[C@H](C)CN([C@@H](C)CO)C3=O)cc1	-0.052% (inactive)	
COc1ccccc1N(CC(=O)NCCSc1ccccn1)S(=O)(=O)c1ccccc1	-0.052% (inactive)	
CC(C)(C)c1cc(CCC(=O)NCc2ccccn2)cc(C(C)(C)C)c1O	-0.086% (inactive)	
COc1ccc(CN(C)C[C@@H]2Oc3ccc(N(C)C)cc3CC(=O)N([C@@H](C)CO)C[C@@H]2C)cc1	-0.012% (inactive)	
CCOc1ccc2ncc(S(=O)(=O)c3ccc(C)cc3)c(N3CCC4(CC3)OCCO4)c2c1	-0.045% (inactive)	
C[C@@H]1CN([C@H](C)CO)C(=O)c2cccc(NS(C)(=O)=O)c2O[C@@H]1CN(C)Cc1ccc(Oc2ccccc2)cc1		activation [2]: -0.185% (inactive)
C[C@@H]1CN([C@H](C)CO)C(=O)c2cccc(NC(=O)C3CC3)c2O[C@@H]1CN(C)Cc1ccccc1	0.474% (inactive)	
C[C@@H]1CN([C@H](C)CO)C(=O)Cc2cc(NC(=O)c3ccncc3)ccc2O[C@H]1CN(C)S(C)(=O)=O	-0.058% (inactive)	
COc1ccccc1N1CCN(C(=O)c2ccco2)CC1	1.75% (inactive)	

SMILES	activation [1]	also measured
C[C@H](CO)N1C[C@H](C)[C@H](CN(C)S(=O)(=O)c2ccc(Cl)cc2)Oc2c(NC(=O)C3CCCCC3)cccc2C1=O	0.576% (inactive)	
CC(C)NC(=O)N(C)C[C@@H]1Oc2ccc(NS(=O)(=O)c3cccs3)cc2CC(=O)N([C@H](C)CO)C[C@@H]1C	1.19% (inactive)	
C[C@@H]1CN([C@H](C)CO)C(=O)c2cc(NC(=O)Nc3ccc(F)cc3)ccc2O[C@H]1CN(C)S(=O)(=O)c1cccs1	0.059% (inactive)	
C[C@@H]1CN([C@@H](C)CO)C(=O)c2cccc(NS(=O)(=O)c3cn(C)cn3)c2O[C@H]1CN(C)C(=O)Nc1ccc2c(c1)OCO2	-0.015% (inactive)	
C[C@H]1CN([C@@H](C)CO)C(=O)Cc2cc(NS(=O)(=O)c3ccccc3)ccc2O[C@H]1CN(C)Cc1ccc(C(F)(F)F)cc1	10.6% (inactive)	
O=C(COc1ccc(Cl)cc1)NCCCNC(=O)c1cnccn1	0.135% (inactive)	
COc1ccc(NC(=O)c2cc(-c3cccs3)on2)c(OC)c1	1.59% (inactive)	
C[C@@H]1CN([C@@H](C)CO)C(=O)c2cc(NC(=O)NC3CCCCC3)ccc2O[C@@H]1CN(C)S(=O)(=O)c1ccc(Cl)cc1	-0.037% (inactive)	
COc1cccc(C(=O)Nc2cc(C)c3c(=O)oc4ccccc4c3n2)c1	2.1% (inactive)	
C[C@H](CO)N1C[C@H](C)[C@@H](CN(C)S(=O)(=O)c2ccc(F)cc2)Oc2ccc(NS(C)(=O)=O)cc2CC1=O		activation [2]: 0.279% (inactive)
C[C@@H]1CN([C@H](C)CO)C(=O)c2cc(NS(C)(=O)=O)ccc2O[C@@H]1CN(C)Cc1ccc(C(F)(F)F)cc1	-0.068% (inactive)	
C[C@H](CO)N1C[C@H](C)[C@H](CN(C)S(=O)(=O)c2ccc(Cl)cc2)Oc2ccc(NS(=O)(=O)c3ccc(F)cc3)cc2CC1=O		activation [2]: -0.115% (inactive)
Cc1noc(C)c1S(=O)(=O)N(C)C[C@H]1Oc2ccc(NC(=O)Nc3ccc(F)cc3)cc2CC(=O)N([C@H](C)CO)C[C@@H]1C	-0.001% (inactive)	
COc1ccc(NC(=O)Nc2ccc3c(c2)C(=O)N([C@H](C)CO)C[C@H](C)[C@@H](CN(C)Cc2ccncc2)O3)cc1	4.31% (inactive)	
C[C@@H]1CN([C@@H](C)CO)C(=O)c2cc(NC(=O)Cc3ccccc3)ccc2O[C@@H]1CN(C)C(=O)Nc1cccc2ccccc12	-0.101% (inactive)	
C[C@@H]1CN([C@@H](C)CO)C(=O)Cc2cc(NC(=O)Cn3cnnn3)ccc2O[C@H]1CN(C)Cc1ccc(Oc2ccccc2)cc1	0.416% (inactive)	
COc1ccc(NC(=O)Nc2cccc3c2O[C@@H](CN(C)C(=O)NC2CCCCC2)[C@@H](C)CN([C@H](C)CO)C3=O)cc1	0.334% (inactive)	
C[C@@H]1CN([C@@H](C)CO)C(=O)c2cc(NC(=O)Nc3ccc(F)cc3)ccc2O[C@@H]1CN(C)S(=O)(=O)c1cccs1	-0.142% (inactive)	
COc1ccc2[nH]c(=O)c(CN(c3ccccc3)S(=O)(=O)c3ccccc3)cc2c1	3% (inactive)	
CC(C)C(c1nnnn1C1CCCCC1)N1CCN(C(=O)c2ccco2)CC1 (configuration not stated)	-0.112% (inactive)	
Cc1ccc(S(=O)(=O)N(C)C[C@@H]2Oc3ccc(N(C)C)cc3C(=O)N([C@H](C)CO)C[C@H]2C)cc1	0.022% (inactive)	
Cc1noc(C)c1S(=O)(=O)Nc1ccc2c(c1)C(=O)N([C@@H](C)CO)C[C@H](C)[C@H](CN(C)Cc1ccc3c(c1)OCO3)O2	-0.065% (inactive)	
CNC[C@@H]1Oc2ccc(NS(C)(=O)=O)cc2C(=O)N([C@@H](C)CO)C[C@@H]1C	-0.177% (inactive)	

SMILES	activation [1]	also measured
CN(CC(=O)Nc1ccc(Br)cc1)Cc1ccccc1	0.013% (inactive)	
C[C@@H]1CN([C@@H](C)CO)C(=O)Cc2cc(NC(=O)NC3CCCCC3)ccc2O[C@H]1CN(C)C(=O)Nc1ccc2c(c1)OCO2	16.7% (inactive)	
C[C@@H]1CN([C@@H](C)CO)C(=O)Cc2cc(NC(=O)Nc3ccc(F)cc3)ccc2O[C@H]1CN(C)C(=O)Nc1ccc(C(F)(F)F)cc1	-0.14% (inactive)	
COc1ccc(S(=O)(=O)Nc2ccc3c(c2)CC(=O)N([C@H](C)CO)C[C@@H](C)[C@H](CN(C)C(=O)NC2CCCCC2)O3)cc1	-0.114% (inactive)	
Cc1noc(C)c1S(=O)(=O)N(C)C[C@@H]1Oc2ccc(NC(=O)Nc3ccc(F)cc3)cc2CC(=O)N([C@H](C)CO)C[C@H]1C	-0.155% (inactive)	
COc1ccc(S(=O)(=O)N(C)C[C@H]2Oc3ccc(NC(=O)CCCN(C)C)cc3C(=O)N([C@@H](C)CO)C[C@@H]2C)cc1	-0.152% (inactive)	
OC(COC(c1ccccc1)c1ccccc1)CN1CCOCC1 (configuration not stated)	2% (inactive)	
O=C(NC(=S)N1CCN(c2ccc([N+](=O)[O-])cc2)CC1)c1ccccc1	-0.117% (inactive)	
COc1ccc(NC(=O)N(C)C[C@@H]2Oc3ccc(NC(=O)c4ccncc4)cc3CC(=O)N([C@@H](C)CO)C[C@@H]2C)cc1		activation [2]: -0.09% (inactive)
C[C@H](CO)N1C[C@H](C)[C@H](CN(C)Cc2ccc(Oc3ccccc3)cc2)Oc2ccc(NC(=O)CCCCCC(=O)Nc3ccccc3N)cc2CC1=O	0.312% (inactive)	
C[C@@H]1CN([C@@H](C)CO)C(=O)Cc2cc(NC(=O)Nc3ccc(F)cc3)ccc2O[C@H]1CN(C)Cc1ccc(C(=O)O)cc1	-0.089% (inactive)	
C[C@H](CO)N1C[C@H](C)[C@H](CN(C)CC2CC2)Oc2ccc(NC(=O)Cc3ccccc3)cc2CC1=O	0.216% (inactive)	
C[C@@H]1CN([C@H](C)CO)C(=O)c2cccc(NC(=O)Nc3ccc(F)cc3)c2O[C@@H]1CN(C)S(=O)(=O)c1cn(C)cn1	-0.066% (inactive)	
C[C@H](CO)N1C[C@H](C)[C@H](CN(C)Cc2ccc(C(=O)Nc3ccccc3N)cc2)Oc2ccc(NS(=O)(=O)c3cccs3)cc2CC1=O	6.58% (inactive)	
CC1CN(S(=O)(=O)c2ccc(F)cc2)C(C)N1C(=O)N1CCOCC1 (configuration not stated)	-0.215% (inactive)	
Cc1ccc(S(=O)(=O)Nc2ccc3c(c2)C(=O)N([C@H](C)CO)C[C@H](C)[C@H](CN(C)C(=O)Nc2cccc4ccccc24)OCCCC[C@@H](C)O3)cc1	7.64% (inactive)	
Cc1ccc(S(=O)(=O)Nc2ccc3c(c2)C(=O)N([C@H](C)CO)C[C@@H](C)[C@H](CN(C)Cc2ccc(-c4ccccc4)cc2)O3)cc1	-0.157% (inactive)	
Cc1cccc(CN2CCCC(C(=O)c3ccc4c(c3)OCO4)C2)n1 (configuration not stated)		activation (at 19.5 µM (top of the series)): 4.78% (inactive)
C[C@H]1CN([C@@H](C)CO)C(=O)c2cc(NC(=O)CCN3CCOCC3)ccc2O[C@@H]1CN(C)Cc1ccncc1	0.277% (inactive)	
C[C@@H]1CN([C@H](C)CO)C(=O)c2cccc(NS(=O)(=O)c3cn(C)cn3)c2O[C@H]1CN(C)C(=O)Nc1ccc(F)cc1		activation [2]: 6% (inactive)
C[C@@H]1CN([C@@H](C)CO)C(=O)c2cc(C#CC3CC3)cnc2O[C@@H]1CN(C)C(=O)c1ccccc1	-0.295% (inactive)	
